Assay results reported in US8093400B2, “Compounds useful in therapy” (Pfizer Inc., priority 2003, dated 2012).

Target: human V1A receptor (Homo sapiens, UniProt P37288)
Assay: V1A filter binding assay ([3H]-AVP binding to CHO-hV1A membranes)
Conditions: screen 1.0, [3H]-AVP binding to CHO-hV1A membranes
Experimental: 1.0 V1A Filter Binding Assay
Receptor binding assays were performed on cellular membranes prepared from CHO cells stably expressing the human V1A receptor, (CHO-hV1A). The CHO-hV1A cell line was kindly provided under a licensing agreement by Marc Thibonnier, Dept. of Medicine, Case Western Reserve University School of Medicine, Cleveland, Ohio. CHO-hV1A cells were routinely maintained at 37° C. in humidified atmosphere with 5% CO2 in DMEM/Hams F12 nutrient mix supplemented with 10% fetal bovine serum, 2 mM L-glutamine, 15 mM HEPES and 400 μg/ml G418. For bulk production of cell pellets, adherent CHO-hV1A cells were grown to confluency of 90-100% in 850 cm^2 roller bottles containing a medium of DMEM/Hams F12 Nutrient Mix supplemented with 10% fetal bovine serum, 2 mM L-glutamine and 15 mM HEPES. Confluent CHO-hV1A cells were washed with phosphate-buffered saline (PBS), harvested into ice cold PBS and centrifuged at 1,000 rpm. Cell pellets were stored at −80° C. until use. Cell pellets were thawed on ice and homogenised in membrane preparation buffer consisting of 50 mM Tris-HCl, pH 7.4, 5 mM MgCl2 and supplemented with a protease inhibitor cocktail, (Roche). The cell homogenate was centrifuged at 1000 rpm, 10 min, 4° C. and the supernatant was removed and stored on ice. The remaining pellet was homogenised and centrifuged as before. The supernatants were pooled and centrifuged at 25,000×g for 30 min at 4° C. […] Protein concentration was determined using Bradford reagent and BSA as a standard.
Protein linearity followed by saturation binding studies were performed on each new batch of membrane. […] Saturation binding studies were then performed using various concentrations of [^3H]-arginine vasopressin, [^3H]-AVP (0.05 nM-100 nM) and the Kd and Bmax determined.
Compounds were tested for their effects on [^3H]-AVP binding to CHO-hV1A membranes, (^3H-AVP; specific activity 65.5 Ci/mmol; NEN Life Sciences). […] The plates were sealed and counted on a TopCount Microplate Scintillation Counter (Packard Instruments). Non-specific binding (NSB) was determined using 1 μM unlabelled d(CH2)5Tyr(Me)AVP ([β-mercapto-β,β-cyclopentamethylenepropionyl,0-Me-Tyr^2,Arg^8]-vasopressin) (βMCPVP), (Sigma). The radioligand binding data was analysed using a four parameter logistic equation with the min forced to 0%. […] Specific binding was calculated by subtracting the mean NSB cpm from the mean Total cpm. For test compounds the amount of ligand bound to the receptor was expressed as % bound=(sample cpm−mean NSB cpm)/specific binding cpm×100. […] The inhibitory dissociation constant (Ki) was calculated using the Cheng-Prusoff equation: Ki=IC50/(1+[L]/Kd) where [L] is the concentration of ligand present in the well and Kd is the dissociation constant of the radioligand obtained from Scatchard plot analysis. […]

Chain of human V1A receptor (P37288 whole entry): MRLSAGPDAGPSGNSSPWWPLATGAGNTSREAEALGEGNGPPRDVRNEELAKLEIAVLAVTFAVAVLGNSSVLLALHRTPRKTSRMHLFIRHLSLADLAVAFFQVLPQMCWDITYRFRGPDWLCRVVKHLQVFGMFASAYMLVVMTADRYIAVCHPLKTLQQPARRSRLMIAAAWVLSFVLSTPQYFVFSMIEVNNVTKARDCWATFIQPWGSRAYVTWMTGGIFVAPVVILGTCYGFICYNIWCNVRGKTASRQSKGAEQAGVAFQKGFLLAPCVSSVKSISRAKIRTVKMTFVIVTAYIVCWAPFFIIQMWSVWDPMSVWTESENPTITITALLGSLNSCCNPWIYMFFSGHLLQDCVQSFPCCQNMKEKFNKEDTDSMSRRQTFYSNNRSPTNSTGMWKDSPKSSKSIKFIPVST

Ki [nM]	SMILES
2.98	O=C(c1cc(F)cc(F)c1)N1CCC(c2nnc(Cn3nccn3)n2-c2ccc(Cl)cc2)CC1 [Example 165, {4-[4-(4-Chloro-phenyl)-5-[1,2,3]triazol-2-ylmethyl-4H-[1,2,4]triazol-3-yl]-piperidin-1-yl}-(3,5-difluoro-phenyl)-methanone]
2.43	O=C(c1ccc(C(F)F)cc1)N1CCC(c2nnc(Cn3nccn3)n2-c2ccc(Cl)cc2)CC1 [Example 206, {4-[4-(4-Chloro-phenyl)-5-[1,2,3]triazol-2-ylmethyl-4H-[1,2,4]triazol-3-yl]-piperidin-1-yl}-(4-difluoromethyl-phenyl)-methanone]
1.99	O=C(c1cc(Cl)ccc1F)N1CCC(c2nnc(Cn3nccn3)n2-c2ccc(Cl)cc2)CC1 [Example 399, (5-Chloro-2-fluoro-phenyl)-{4-[4-(4-chloro-phenyl)-5-[1,2,3]triazol-2-ylmethyl-4H-[1,2,4]triazol-3-yl]-piperidin-1-yl}-methanone]
1.11	O=C(c1n[nH]c2ccccc12)N1CCC(c2nnc(Cn3nccn3)n2-c2ccc(Cl)cc2)CC1 [Example 405, {4-[4-(4-Chloro-phenyl)-5-[1,2,3]triazol-2-ylmethyl-4H-[1,2,4]triazol-3-yl]-piperidin-1-yl}-(1H-indazol-3-yl)-methanone]
